Experimental data published in paper PMC5913400, “Yoda1 analogue (Dooku1) which antagonizes Yoda1‐evoked activation of Piezo1 and aortic relaxation” (British Journal of Pharmacology, 2018).
Where two headings read alike, the source gives them in different places.

Columns and labels:
Assay type in all cases: cell-based
Piezo1 [1] = molecular target: T1, Piezo1 (Homo sapiens, UniProt Q92508); assay: intracellular Ca2+ (fura-2) in Piezo1 T-REx HEK […] cells; no response in cells without Piezo1; EC50 […] in HUVECs
Piezo1 [2] = molecular target: T1, Piezo1; assay: inhibition of […] Yoda1-evoked Ca2+ entry in Piezo1 T-REx HEK […] cells; reversible; also Tl+ flux and HUVECs (IC50 […])
Piezo1 [3] = molecular target: T1, Piezo1; assay: partial agonist; […] pretreatment reduces […] Yoda1-evoked Ca2+ entry in Piezo1 T-REx HEK […] cells; conditions: TREx-HEK; read-out: % inhibition of Yoda1 response at 10 μM
Piezo1 [4] = molecular target: T1, Piezo1; assay: Ca2+ entry at […] in Piezo1 T-REx HEK […] cells ([…] of Yoda1 response); also reduces Yoda1 response; conditions: TREx-HEK; read-out: % of 10 μM Yoda1 response
Piezo1 [5] = molecular target: T1, Piezo1; assay: as above; conditions: TREx-HEK; read-out: % of 10 μM Yoda1 response; remark: listed apart in the source

T1 sequence (Q92508 whole entry): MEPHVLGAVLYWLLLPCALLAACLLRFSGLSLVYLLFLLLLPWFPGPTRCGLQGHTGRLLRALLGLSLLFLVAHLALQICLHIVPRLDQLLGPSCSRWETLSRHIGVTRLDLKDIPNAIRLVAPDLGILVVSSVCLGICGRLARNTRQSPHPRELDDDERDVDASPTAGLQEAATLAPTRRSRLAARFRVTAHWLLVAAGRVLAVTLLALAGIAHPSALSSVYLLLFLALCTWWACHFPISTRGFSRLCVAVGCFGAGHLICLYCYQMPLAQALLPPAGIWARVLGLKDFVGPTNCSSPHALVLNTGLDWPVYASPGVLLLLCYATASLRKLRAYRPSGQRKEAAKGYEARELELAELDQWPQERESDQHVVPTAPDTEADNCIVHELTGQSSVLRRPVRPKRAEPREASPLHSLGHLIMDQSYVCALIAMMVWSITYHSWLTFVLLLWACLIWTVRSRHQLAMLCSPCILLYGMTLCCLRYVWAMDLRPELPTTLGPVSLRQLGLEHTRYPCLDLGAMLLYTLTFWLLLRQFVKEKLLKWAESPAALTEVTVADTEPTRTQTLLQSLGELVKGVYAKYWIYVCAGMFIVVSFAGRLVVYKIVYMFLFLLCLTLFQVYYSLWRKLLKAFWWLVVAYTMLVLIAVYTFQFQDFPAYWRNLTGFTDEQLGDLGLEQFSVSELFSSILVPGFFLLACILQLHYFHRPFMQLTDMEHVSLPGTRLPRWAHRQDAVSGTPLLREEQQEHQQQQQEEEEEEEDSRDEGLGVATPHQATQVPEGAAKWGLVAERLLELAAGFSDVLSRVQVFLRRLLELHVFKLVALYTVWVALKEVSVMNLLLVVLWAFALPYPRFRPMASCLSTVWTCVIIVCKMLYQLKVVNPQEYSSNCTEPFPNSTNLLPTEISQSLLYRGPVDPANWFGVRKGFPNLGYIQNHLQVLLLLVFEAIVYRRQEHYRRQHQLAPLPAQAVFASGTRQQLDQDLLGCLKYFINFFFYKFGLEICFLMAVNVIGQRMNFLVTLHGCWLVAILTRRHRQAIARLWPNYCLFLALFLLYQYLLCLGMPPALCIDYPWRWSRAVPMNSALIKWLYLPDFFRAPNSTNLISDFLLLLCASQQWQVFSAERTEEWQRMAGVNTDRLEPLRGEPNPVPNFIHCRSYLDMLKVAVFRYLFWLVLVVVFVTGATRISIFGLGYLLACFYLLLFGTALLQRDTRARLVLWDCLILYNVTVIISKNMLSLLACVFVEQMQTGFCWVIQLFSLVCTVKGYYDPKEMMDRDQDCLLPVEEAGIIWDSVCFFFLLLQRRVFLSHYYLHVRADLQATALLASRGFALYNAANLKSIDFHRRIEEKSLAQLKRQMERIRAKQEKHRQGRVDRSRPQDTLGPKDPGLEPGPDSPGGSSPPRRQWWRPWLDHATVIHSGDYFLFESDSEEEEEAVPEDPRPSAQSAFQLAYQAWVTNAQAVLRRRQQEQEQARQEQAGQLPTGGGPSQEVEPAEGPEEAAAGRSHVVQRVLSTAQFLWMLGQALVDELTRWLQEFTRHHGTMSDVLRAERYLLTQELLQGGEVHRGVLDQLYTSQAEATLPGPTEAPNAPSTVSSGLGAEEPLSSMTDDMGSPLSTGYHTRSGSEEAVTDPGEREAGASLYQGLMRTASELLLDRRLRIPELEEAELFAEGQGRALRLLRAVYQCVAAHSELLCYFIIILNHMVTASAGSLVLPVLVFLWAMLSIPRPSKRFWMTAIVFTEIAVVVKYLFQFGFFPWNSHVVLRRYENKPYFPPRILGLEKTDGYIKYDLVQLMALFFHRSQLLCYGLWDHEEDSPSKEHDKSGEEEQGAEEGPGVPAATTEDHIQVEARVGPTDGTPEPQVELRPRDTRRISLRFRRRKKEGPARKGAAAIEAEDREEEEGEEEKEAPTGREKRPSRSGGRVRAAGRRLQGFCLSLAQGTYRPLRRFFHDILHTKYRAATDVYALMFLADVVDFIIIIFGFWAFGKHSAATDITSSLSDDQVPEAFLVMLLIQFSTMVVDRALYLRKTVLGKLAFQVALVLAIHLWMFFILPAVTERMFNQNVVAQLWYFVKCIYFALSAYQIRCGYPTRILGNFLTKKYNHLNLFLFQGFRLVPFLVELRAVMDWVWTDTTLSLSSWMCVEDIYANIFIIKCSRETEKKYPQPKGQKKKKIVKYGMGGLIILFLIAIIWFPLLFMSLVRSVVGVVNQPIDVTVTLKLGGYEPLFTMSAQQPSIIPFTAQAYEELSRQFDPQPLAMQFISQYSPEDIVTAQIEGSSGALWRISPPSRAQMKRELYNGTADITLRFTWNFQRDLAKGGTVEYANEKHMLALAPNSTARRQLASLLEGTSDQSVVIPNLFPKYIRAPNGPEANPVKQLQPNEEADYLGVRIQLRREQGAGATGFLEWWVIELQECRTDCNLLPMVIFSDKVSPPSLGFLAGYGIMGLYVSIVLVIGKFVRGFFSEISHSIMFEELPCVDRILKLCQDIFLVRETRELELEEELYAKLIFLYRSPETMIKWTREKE

## Clc1cccc(Cl)c1CSc1nnc(-c2cnccn2)s1 [Yoda1]
Piezo1 [1]
  EC50: 2510 nM

## Clc1cccc(Cl)c1CSc1nnc(-c2ccc[nH]2)o1 [2k, Dooku1]
Piezo1 [2]
  IC50: 1300 nM

## Clc1cccc(Cl)c1CSc1nnc(-c2ccccn2)o1 [2j]
Piezo1 [3]
  inhibition at 10 µM: ~75%

## Clc1cccc(Cl)c1CSc1nnc(-c2cnccn2)o1 [compound 11]
Piezo1 [4]
  Emax: ~70%

## Clc1cccc(Cl)c1CSc1nnc(-c2cccnc2)s1 [7a]
Piezo1 [5]
  Emax: 50%
